From publication PMC10527105, “Chirality Matters: Fine-Tuning of Novel Monoamine Reuptake Inhibitors Selectivity through Manipulation of Stereochemistry” (Biomolecules, 2023)
“Also recorded” adds a separate entry of the source. Like-named read-outs stand apart in the source and are kept apart here.

Experiments:
Type in all cases: cell-based
[1] = tested on: rat cortical neurons; assay: Neurite outgrowth assay (Cyprotex); conditions: for IC50: Rattus norvegicus, Cortical neurone, 72 h; for window between neurite outgrowth effect concentration and active concentration: effect at 100 µM compared to the active concentration; for effect on valid neuron count, mean neurite average length and neurite total length per neuron: only at 100 µM (top concentration tested); for effect on neurite outgrowth in relation to effect on cell viability: rat cortical neurons; for cell-toxic effects: up to a concentration of 50 µM
Method: Neurite outgrowth assay. […] were carried out by Cyprotex (an Evotec Company, Toulouse, France), Study No. CYP2052-R1. For an in-depth description, please refer to the report in the supporting information files. Cryo-preserved rat cortical neurons (QBM Cell Science, R-Cx-500) were quickly thawed and slowly diluted with neurobasal medium supplemented with L-glutamine (Invitrogen, Cat. No. 25030-081), penicillin-streptomycin (Invitrogen, Cat. No. 15140-122), and B27 (NB/B27 medium, Invitrogen, Cat. No. 17504-044). After a gentle centrifugation step, the neurons were resuspended in NB/B27 medium at a density of 4.0 × 10^6 cells/mL. One hour prior to treatment, the neurons were plated in 384-well plates (Corning 354663) pre-coated with a laminin solution (Sigma L2020 1 mg/mL) at a density of 10,000 cells per well. After treatment with test articles and control compounds, the neurons were maintained in a humidified environment at 37 °C with 5% CO2 for 72 h. At the end of the treatment period, the neurons were fixed for 1 h with a 3.7% formaldehyde solution (Acros Organics, 41073-0010). The neurons were washed with phosphate buffered saline (PBS) (SH30264.02) and permeabilized for 10 min with a 0.5% solution of Triton X-100 (Millipore Sigma, X100). After another wash step, the neurons were stained for one hour with Hoechst 33342 (ThermoFisher Scientific, H3570) and the anti-beta III tubulin antibody, Alexa Fluor® 488 conjugate (Millipore Sigma AB15708A4), diluted in a blocking buffer solution (Thermo Scientific, 37525). Upon completion of the staining step, the neurons were washed again, and the plates were sealed in preparation for the imaging process. The neurons were evaluated for neurite outgrowth and cell health using the high-content imaging platform, ArrayScan VTi (Thermo Scientific ArrayScan VTi), with an optimized neuronal profiling bio-application.
This assay assessed cell health and neurite outgrowth utilizing a neuronal profiling bio-application applied to images obtained on an ArrayScan VTi. Valid neuron count, mean neurite average length, and neurite total length per neuron were determined and reported. Raw data were normalized to the vehicle control and reported as a normalized% response. Dose response graphs were generated with GraphPad Prism using a sigmoidal dose-response (variable slope) algorithm.

[2] = target: T1, human dopamine transporter/SLC6A3 (DAT) (Homo sapiens, UniProt Q01959); assay: Cellular uptake experiments: [3H]-dopamine reuptake inhibition in transporter-expressing HEK293 cells; conditions: Reuptake Inhibition (IC50 ± SE, µM) DAT, cells stably expressing DAT; [3H]-dopamine 1 µM; screening cut-off 50 µM
T1 construct: expressed in transfected cells; host or cells: HEK293
T1 sequence (Q01959 whole entry): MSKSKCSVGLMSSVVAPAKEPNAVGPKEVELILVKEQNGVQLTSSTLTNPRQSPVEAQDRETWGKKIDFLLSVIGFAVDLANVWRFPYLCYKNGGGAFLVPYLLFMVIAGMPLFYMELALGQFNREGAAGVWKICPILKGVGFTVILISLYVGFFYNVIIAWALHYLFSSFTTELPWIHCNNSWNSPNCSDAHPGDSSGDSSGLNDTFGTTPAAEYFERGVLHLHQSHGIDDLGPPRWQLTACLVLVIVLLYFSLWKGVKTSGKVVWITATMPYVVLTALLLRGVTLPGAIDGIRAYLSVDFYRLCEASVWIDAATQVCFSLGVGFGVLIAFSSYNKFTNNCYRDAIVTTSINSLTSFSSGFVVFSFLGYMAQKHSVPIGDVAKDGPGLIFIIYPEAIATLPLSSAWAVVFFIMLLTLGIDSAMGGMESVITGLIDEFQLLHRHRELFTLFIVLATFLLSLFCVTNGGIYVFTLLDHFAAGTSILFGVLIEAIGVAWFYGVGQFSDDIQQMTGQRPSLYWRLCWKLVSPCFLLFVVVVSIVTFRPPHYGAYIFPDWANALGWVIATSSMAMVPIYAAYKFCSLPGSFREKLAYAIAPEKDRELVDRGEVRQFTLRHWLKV
Method in brief: (§1)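 Stably transfected HEK293 cells preincubated 5 min with compound, then 1 µM [3H]-substrate for 2.5 min (SERT: 5 min) at 25 °C, pH 7.1 buffer; uptake counted by scintillation. Nonspecific uptake defined with 10 µM mazindol (DAT, NET) or 10 µM clomipramine (SERT).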

[3] = target: T2, noradrenaline transporter/SLC6A2 (NET) (Homo sapiens, UniProt P23975); assay: Cellular uptake experiments: [3H]-noradrenaline reuptake inhibition in transporter-expressing HEK293 cells
T2 construct: expressed in transfected cells; host or cells: HEK293
T2 sequence (P23975 whole entry): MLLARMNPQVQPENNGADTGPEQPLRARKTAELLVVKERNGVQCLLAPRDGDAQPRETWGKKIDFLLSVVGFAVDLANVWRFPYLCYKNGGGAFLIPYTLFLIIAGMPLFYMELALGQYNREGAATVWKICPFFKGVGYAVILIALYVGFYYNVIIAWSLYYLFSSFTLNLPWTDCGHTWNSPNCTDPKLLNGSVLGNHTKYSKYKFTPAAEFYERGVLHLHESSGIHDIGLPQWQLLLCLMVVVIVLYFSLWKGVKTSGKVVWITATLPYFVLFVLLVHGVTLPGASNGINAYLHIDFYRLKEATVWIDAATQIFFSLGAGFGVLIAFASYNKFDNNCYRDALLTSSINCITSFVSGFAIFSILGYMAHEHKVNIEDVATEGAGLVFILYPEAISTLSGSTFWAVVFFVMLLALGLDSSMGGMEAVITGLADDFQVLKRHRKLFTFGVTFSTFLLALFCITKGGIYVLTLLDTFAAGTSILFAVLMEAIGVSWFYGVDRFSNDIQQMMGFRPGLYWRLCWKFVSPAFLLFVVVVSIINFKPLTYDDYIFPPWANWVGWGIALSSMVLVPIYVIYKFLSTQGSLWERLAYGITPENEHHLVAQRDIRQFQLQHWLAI
Method in brief: as §1

[4] = target: T3, human serotonin transporter/SLC6A4 (SERT) (Homo sapiens, UniProt P31645); assay: Cellular uptake experiments: [3H]-serotonin reuptake inhibition in transporter-expressing HEK293 cells; conditions: Reuptake Inhibition (IC50 ± SE, µM) SERT, cells stably expressing SERT; [3H]-serotonin 1 µM; screening cut-off 50 µM
T3 construct: expressed in transfected cells; host or cells: HEK293
T3 sequence (P31645 whole entry): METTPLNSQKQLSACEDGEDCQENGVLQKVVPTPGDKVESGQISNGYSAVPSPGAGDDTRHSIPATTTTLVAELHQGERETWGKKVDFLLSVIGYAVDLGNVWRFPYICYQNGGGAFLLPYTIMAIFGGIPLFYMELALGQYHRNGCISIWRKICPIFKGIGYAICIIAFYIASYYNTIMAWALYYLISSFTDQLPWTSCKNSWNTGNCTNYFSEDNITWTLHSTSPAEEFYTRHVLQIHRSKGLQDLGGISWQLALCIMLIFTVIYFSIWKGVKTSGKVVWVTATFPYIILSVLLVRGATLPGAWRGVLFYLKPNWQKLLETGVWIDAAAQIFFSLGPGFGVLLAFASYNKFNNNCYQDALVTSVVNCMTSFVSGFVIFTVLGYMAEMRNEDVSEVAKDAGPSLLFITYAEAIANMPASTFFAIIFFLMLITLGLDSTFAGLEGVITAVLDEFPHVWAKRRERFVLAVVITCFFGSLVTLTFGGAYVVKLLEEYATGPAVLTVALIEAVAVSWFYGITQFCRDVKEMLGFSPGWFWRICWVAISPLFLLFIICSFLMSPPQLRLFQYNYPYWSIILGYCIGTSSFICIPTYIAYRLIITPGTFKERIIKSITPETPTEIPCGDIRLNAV
Method in brief: as §1

[5] = target: T4, DAT-expressing SK-N-MC cells (Homo sapiens, UniProt Q01959); assay: Superfusion experiments: [3H]MPP+ efflux and d-amphetamine interaction; conditions: for action on the dopamine-releasing effect of D-amphetamine: 3 µM D-amphetamine; for efflux-increasing (releasing) action on DAT-expressing, substrate-loaded superfused cells: compound alone
T4 construct: expressed in transfected cells; host or cells: SK-N-MC (human neuroblastoma)
T4 sequence (Q01959 whole entry, the tested form may be a part): as the sequence (Q01959 whole entry) above

[6] = read-out: Mean Neurite Avg. Length IC50, rat cortical neurons, 72 h
[7] = read-out: Neurite Total Length per Neuron IC50, rat cortical neurons, 72 h
[8] = read-out: Valid Neuron Count IC50, rat cortical neurons, 72 h

Row | SMILES | IC50 [1, 6] | IC50 [1, 7] | IC50 [1, 8] | window between neurite outgrowth effect concentration and active concentration [1] | effect on valid neuron count, mean neurite average length and neurite total length per neuron [1] | effect on neurite outgrowth in relation to effect on cell viability [1] | cell-toxic effects [1] | IC50 [2] | IC50 [3] | IC50 [4] | action on the dopamine-releasing effect of D-amphetamine [5] | efflux-increasing (releasing) action on DAT-expressing, substrate-loaded superfused cells [5]
1 | [O-][S@@+](Cc1cccs1)[C@@H](c1ccccc1)c1cccc(Br)c1 [Compound 7h, (S,S)-2-((((3-bromophenyl)(phenyl)methyl)sulfinyl)methyl)thiophene] | 65.8 µM | 59.8 µM | 92.2 µM | more than 100 fold | significant decreases | not independent of their effect on cell viability | absence of cell-toxic effects | 0.48 ± 0.11 µM | 16.4 ± 0.6 µM | > 50 µM | potent inhibiting action | absence of an efflux-increasing action; also recorded: lack of amphetamine-like effects
2 | [O-][S@+](Cc1cccs1)[C@H](c1ccccc1)c1cccc(Br)c1 [Compound 8h, (R,R)-2-((((3-bromophenyl)(phenyl)methyl)sulfinyl)methyl)thiophene] | 75.2 µM | 72.2 µM | 94.6 µM | more than 100 fold | significant decreases | not independent of their effect on cell viability | absence of cell-toxic effects | 0.3 ± 0.03 µM | > 50 µM | 14 ± 3 µM | potent inhibiting action | absence of an efflux-increasing action; also recorded: lack of amphetamine-like effects
